According to patent US9999619B2, “Piperidin-4-yl azetidine derivatives as JAK1 inhibitors” (Incyte Corporation, priority 2010, dated 2018):

How the values were obtained:
Format in all cases: biochemical
[1] = target: human JAK1 (a.a. 837-1142); assay: In vitro JAK kinase assay (HTRF, phosphorylation of a biotinylated peptide), JAK1; conditions: ratio of JAK2 IC50 to JAK1 IC50, measured at 1 mM ATP
Method in brief: (§1)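 Phosphorylation of a biotinylated peptide by purified His-tagged JAK catalytic domains (insect-cell baculovirus expression) ran 1 hr at room temperature. After stopping with EDTA, Eu-Py20 and SA-APC were bound for 40 minutes and HTRF measured.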

[2] = target: human JAK1 (a.a. 837-1142) (Homo sapiens, UniProt P23458); assay: as above; conditions: measured at 1 mM ATP
Method in brief: as §1

[3] = target: Jak2 (a.a. 828-1132) (Homo sapiens (Human), UniProt O60674); assay: In vitro JAK kinase assay (HTRF, phosphorylation of a biotinylated peptide), JAK2; conditions: measured at 1 mM ATP
Jak2 (a.a. 828-1132), sequence (O60674 828-1132): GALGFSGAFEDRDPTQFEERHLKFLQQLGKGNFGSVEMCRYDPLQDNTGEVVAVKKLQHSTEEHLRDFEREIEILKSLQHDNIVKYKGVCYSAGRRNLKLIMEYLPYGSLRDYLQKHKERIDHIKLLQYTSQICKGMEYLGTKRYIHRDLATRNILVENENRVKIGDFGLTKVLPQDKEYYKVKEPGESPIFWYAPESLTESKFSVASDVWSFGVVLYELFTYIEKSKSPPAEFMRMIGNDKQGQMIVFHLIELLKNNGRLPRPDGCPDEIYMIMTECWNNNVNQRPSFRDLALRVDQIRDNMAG
Method in brief: as §1

Row | Compound | IC50 Ratio JAK2/JAK1 [1] | IC50 [2] | IC50 [3]
1 | COc1cccc(C(=O)N2CCC(N3CC(CC#N)(n4cc(-c5ncnc6[nH]ccc56)cn4)C3)CC2)c1 [Example 31, {1-[1-(3-methoxybenzoyl)piperidin-4-yl]-3-[4-(7H-pyrrolo[2,3-d]pyrimidin-4-yl)-1H-pyrazol-1-yl]azetidin-3-yl}acetonitrile] | 1.9 | ≤ 5 nM | ≤ 10 nM
2 | COc1cccc(F)c1C(=O)N1CCC(N2CC(CC#N)(n3cc(-c4ncnc5[nH]ccc45)cn3)C2)CC1 [Example 39, {1-[1-(2-fluoro-6-methoxybenzoyl)piperidin-4-yl]-3-[4-(7H-pyrrolo[2,3-d]pyrimidin-4-yl)-1H-pyrazol-1-yl]azetidin-3-yl}acetonitrile] | 3.2 | ≤ 5 nM | ≤ 10 nM
3 | COc1cc(F)cc(C(=O)N2CCC(N3CC(CC#N)(n4cc(-c5ncnc6[nH]ccc56)cn4)C3)CC2)c1 [Example 36, {1-[1-(3-fluoro-5-methoxybenzoyl)piperidin-4-yl]-3-[4-(7H-pyrrolo[2,3-d]pyrimidin-4-yl)-1H-pyrazol-1-yl]azetidin-3-yl}acetonitrile] | 2.3 | ≤ 5 nM | ≤ 10 nM
4 | Cc1cc(C)c(CC(=O)N2CCC(N3CC(CC#N)(n4cc(-c5ncnc6[nH]ccc56)cn4)C3)CC2)c(C)c1 [Example 113, {1-[1-(mesitylacetyl)piperidin-4-yl]-3-[4-(7H-pyrrolo[2,3-d]pyrimidin-4-yl)-1H-pyrazol-1-yl]azetidin-3-yl}acetonitrile] | 4.2 | 20 to 30 nM | 50 to 100 nM
5 | Cn1nccc1S(=O)(=O)N1CCC(N2CC(CC#N)(n3cc(-c4ncnc5[nH]ccc45)cn3)C2)CC1 [Example 246, {1-{1-[(1-Methyl-1H-pyrazol-5-yl)sulfonyl]piperidin-4-yl}-3-[4-(7H-pyrrolo[2,3-d]pyrimidin-4-yl)-1H-pyrazol-1-yl]azetidin-3-yl}acetonitrile] | 7.5 | ≤ 5 nM | 10 to 50 nM
6 | N#CCC1(n2cc(-c3c(F)cnc4[nH]ccc34)cn2)CN(C2CCN(C(=O)c3ccnc(C(F)(F)F)c3F)CC2)C1 [Example 314, (3-[4-(5-Fluoro-1H-pyrrolo[2,3-b]pyridin-4-yl)-1H-pyrazol-1-yl]-1-{1-[3-fluoro-2-(trifluoromethyl)isonicotinoyl]piperidin-4-yl}azetidin-3-yl)acetonitrile] | 11.0 | ≤ 5 nM | 10 to 50 nM
7 | Cn1ccc(S(=O)(=O)N2CCC(N3CC(CC#N)(n4cc(-c5ncnc6[nH]ccc56)cn4)C3)CC2)n1 [Example 251, {1-{1-[(1-methyl-1H-pyrazol-3-yl)sulfonyl]piperidin-4-yl}-3-[4-(7H-pyrrolo[2,3-d]pyrimidin-4-yl)-1H-pyrazol-1-yl]azetidin-3-yl}acetonitrile] | 4.9 | ≤ 5 nM | ≤ 10 nM
8 | CCOC(=O)N1CCC(N2CC(CC#N)(n3cc(-c4ncnc5[nH]ccc45)cn3)C2)CC1 [Example 388, ethyl 4-{3-(cyanomethyl)-3-[4-(7H-pyrrolo[2,3-d]pyrimidin-4-yl)-1H-pyrazol-1-yl]azetidin-1-yl}piperidine-1-carboxylate] | 7.6 | 5 to 20 nM | 10 to 50 nM
9 | N#CCC1(n2cc(-c3ncnc4[nH]ccc34)cn2)CN(C2CCN(C(=O)c3ccc(F)c(O)c3)CC2)C1 [Example 58, {1-[1-(4-fluoro-3-hydroxybenzoyl)piperidin-4-yl]-3-[4-(7H-pyrrolo[2,3-d]pyrimidin-4-yl)-1H-pyrazol-1-yl]azetidin-3-yl}acetonitrile] | 5.0 | ≤ 5 nM | 10 to 50 nM
10 | N#CCC1(n2cc(-c3ncnc4[nH]ccc34)cn2)CN(C2CCN(C(=O)c3cccc(F)c3F)CC2)C1 [Example 41, {1-[1-(2,3-difluorobenzoyl)piperidin-4-yl]-3-[4-(7H-pyrrolo[2,3-d]pyrimidin-4-yl)-1H-pyrazol-1-yl]azetidin-3-yl}acetonitrile] | 4.9 | ≤ 5 nM | ≤ 10 nM
11 | COc1ncccc1NC(=O)N1CCC(N2CC(CC#N)(n3cc(-c4ccnc5[nH]ccc45)cn3)C2)CC1 [Example 306, 4-{3-(cyanomethyl)-3-[4-(1H-pyrrolo[2,3-b]pyridin-4-yl)-1H-pyrazol-1-yl]azetidin-1-yl}-N-(2-methoxypyridin-3-yl)piperidine-1-carboxamide] | 3.5 | 5 to 20 nM | 10 to 50 nM
12 | N#CCC1(n2cc(-c3ncnc4[nH]ccc34)cn2)CN(C2CCN(S(=O)(=O)c3ccc(C#N)cc3)CC2)C1 [Example 249, 4-[(4-{3-(cyanomethyl)-3-[4-(7H-pyrrolo[2,3-d]pyrimidin-4-yl)-1H-pyrazol-1-yl]azetidin-1-yl}piperidin-1-yl)sulfonyl]benzonitrile] | 2.1 | 5 to 20 nM | 10 to 50 nM

Further lines, results first:

Row | IC50 Ratio JAK2/JAK1 [1] | IC50 [2] | IC50 [3] | Compound
13 | 33.8 | ≤ 5 nM | 10 to 50 nM | CC(C)NC(=O)N1CCC(N2CC(CC#N)(n3cc(-c4ncnc5[nH]ccc45)cn3)C2)CC1 [Example 367, 4-{3-(cyanomethyl)-3-[4-(7H-pyrrolo[2,3-d]pyrimidin-4-yl)-1H-pyrazol-1-yl]azetidin-1-yl}-N-isopropylpiperidine-1-carboxamide]
14 | 0.5 | ≤ 5 nM | ≤ 10 nM | N#CCC1(n2cc(-c3ncnc4[nH]ccc34)cn2)CN(C2CCN(C(=O)c3csc4ccccc34)CC2)C1 [Example 96, {1-[1-(1-benzothien-3-ylcarbonyl)piperidin-4-yl]-3-[4-(7H-pyrrolo[2,3-d]pyrimidin-4-yl)-1H-pyrazol-1-yl]azetidin-3-yl}acetonitrile]
15 | 9.1 | ≤ 5 nM | 10 to 50 nM | N#CCC1(n2ccc(-c3ncnc4[nH]ccc34)c2)CN(C2CCN(C(=O)Nc3ncccc3F)CC2)C1 [Example 292, 4-{3-(cyanomethyl)-3-[3-(7H-pyrrolo[2,3-d]pyrimidin-4-yl)-1H-pyrrol-1-yl]azetidin-1-yl}-N-(3-fluoropyridin-2-yl)piperidine-1-carboxamide]
16 | 5.8 | ≤ 5 nM | 10 to 50 nM | N#CCC1(n2cc(-c3ncnc4[nH]ccc34)cn2)CN(C2CCN(C(=O)c3cccc(F)c3)CC2)C1 [Example 25, {1-[1-(3-fluorobenzoyl)piperidin-4-yl]-3-[4-(7H-pyrrolo[2,3-d]pyrimidin-4-yl)-1H-pyrazol-1-yl]azetidin-3-yl}acetonitrile]
17 | 1.6 | ≤ 5 nM | ≤ 10 nM | COC(=O)c1ccccc1NC(=O)N1CCC(N2CC(CC#N)(n3cc(-c4ncnc5[nH]ccc45)cn3)C2)CC1 [Example 206, methyl 2-{[(4-{3-(cyanomethyl)-3-[4-(7H-pyrrolo[2,3-d]pyrimidin-4-yl)-1H-pyrazol-1-yl]azetidin-1-yl}piperidin-1-yl)carbonyl]amino}benzoate]
18 | 7.9 | ≤ 5 nM | 10 to 50 nM | N#CCC1(n2cc(-c3ncnc4[nH]ccc34)cn2)CN(C2CCN(C(=O)c3ccc(-c4ccc5ccncc5c4)c(F)c3)CC2)C1 [Example 133, {1-[1-(3-fluoro-4-isoquinolin-7-ylbenzoyl)piperidin-4-yl]-3-[4-(7H-pyrrolo[2,3-d]pyrimidin-4-yl)-1H-pyrazol-1-yl]azetidin-3-yl}acetonitrile]
